Results on twelve substances are retold here after patent US20240360185A1, “AV3 MUTANT INSECTICIDAL POLYPEPTIDES AND METHODS FOR PRODUCING AND USING SAME” (Vestaron Corporation, priority 2018, published 2024).

For series [1], the system named is houseflies (Musca domestica). The series can be described thus: housefly injection assay. The note with it: for toxicity to houseflies by injection / activities in fly injection assay: in vivo; for lowest dose to produce knock-down activity: within the first 4 hours post injection; for effect on housefly mortality: dose of 10, 50, and 100 nmol/g for 24 hours; for recovery of the knock-down flies: 100 pmol/g dose; for lethal activity to houseflies: injection. In kind it is in vivo. How it is done: An exemplary housefly injection bioassay is as follows: conditioned media is serially diluted to generate full dose-response curves from the housefly injection bioassay. Before injection, adult houseflies (Musca domestica) are immobilized with CO2, and 12-18 mg houseflies are selected for injection. A microapplicator, loaded with a 1 cc syringe and 30-gauge needle, is used to inject 0.5 μL per fly, doses of serially diluted conditioned media samples into houseflies through the body wall of the dorsal thorax. The injected houseflies are placed into closed containers with moist filter paper and breathing holes on the lids, and they are examined by knock-down ratio or by mortality scoring at 24 hours post-injection. Normalized yields are calculated. Peptide yield means the peptide concentration in the conditioned media in units of mg/L. However, peptide yields are not always sufficient to accurately compare the strain production rate. […] The cell density is represented by the light absorbance at 600 nm with a unit of “A” (Absorbance unit).
A Housefly injection assay was performed to compare the activity of Av3b with GenScript Synthetic Av3b. FIG. 33. Adult houseflies were immobilized in CO2 for 10 minutes and then transferred to a CO2 pan to keep them immobilized. Flies with weight between 12-20 mg were picked for injection. The synthetic peptides were diluted in water to proper doses for injection. 0.5 μL peptide solution was injected into housefly at the dorsal thorax using a hand-microapplicator with 1 cc all-glass syringe with 30 gouge straight needle. The injected flies were then transferred to a 2 oz transparent portion container with a wet #4 filter paper. Fly score was accessed at 2 hour, 3 hour, 4 hour and 24 hour post-injection. […] Core-5 and Core-4 synthetic polypeptides were also evaluated in the housefly injection assay. FIG. 34. […] FIG. 36.

The test system of the next series is Aedes aegypti. The series can be described thus: adult mosquito topical bioassay. In kind it is in vivo. The following applies: for Knock-down 50 at 3 hr, Average: Table 5; for Knock-down 50 at 3 hr: Table 5, single determinations; for paralysis and kill of adult mosquitos upon topical application: in vivo; for synergy with permethrin: permethrin 500 ppb; for KD50 at 3-hours: post topical application; for activity relative to native Av3: 3 hours post application. How it is done:
Native Av3, R1K mutant Av3 (Av3a) and R1K+AC-Val double mutant Av3 (Av3a-C1, or Av3b) were evaluated in the adult mosquito topical bioassay. The adult mosquitoes were ordered from Benzon Research. The adult mosquitoes were immobilized using CO2 gas and transferred onto a CO2 pad with CO2 flowing to keep them immobilized during topical applications. A hand microapplicator equipped with 1 cc glass syringe with a 30 gouge straight needle was used for the application of droplet. 0.25 μl droplet of toxin solution per mosquito was pushed out from the needle and gently applied to the ventral side of the mosquito abdomen. The treated mosquitoes were put into a 2.5 oz. clear cup with moisture filter paper and lid with breathing holes. Score the treated mosquitoes for paralysis or death within 24 hours post-application. […] FIG. 13.

Series [2] in a line: incubation of purified peptide in fermentation beer with untransformed K. lactis. In kind it is physicochemical. The following applies: 8 days at room temperature. On the procedure: The pLB102-YCT-18 strain's apparent expression of two Av3+2 peptides, i.e., Av3+2 and Av3+2−C1, raised the question as to whether the C-Val cleavage observed in Peak 1 (SEQ ID NO: 19) occurred during peptide expression and secretion, or whether it occurred in the spent medium/fermentation beer as a result of endogenous proteases secreted from K. lactis. To answer this question, Av3+2 peptide was purified according to the abovementioned methods, and incubated with the fermentation beer in concert with untransformed K. lactis strain (i.e., a null strain) for 8 days at room temperature (RT). FIG. 4.

The subject of a further series is houseflies. The series can be described thus: housefly feeding assay (oral toxicity). In kind it is in vivo. How it is done:
The oral toxicity of Av3+2−C1 peptide was evaluated in the housefly feeding assay by mixing 20 PPT Av3+2−C1 with fly food (1:1 sugar: dry milk) and observed for 96 hours. Knock-down and dead flies were observed starting at 24-hour post-feeding and accumulated with time. FIG. 19. Unlike the housefly injection bioassay, recovery from paralysis in the feeding assay was not observed, likely due to the fact that the houseflies were continuously dosed in the later bioassay. FIG. 20.

The subject of series [3] is crustacean and insect sodium channels. The following applies: cited from earlier work.
Where [4] appears, read: 1000 pmol/g dose, overnight observation.
[5] abbreviates: Table 9, synthetic polypeptides.

Where “and” joins values, the source holds several entries; their conditions need not be identical. Identical values can stand only once. Entries after “also recorded” stand apart in the source; their conditions may differ. Ends that are not written are not given here.

In the case of “GSRSCCPCYWGGCPWGQNCYPEGCSGPKV (not fully specified; ends and bridges not checked) [Av3+2]”, the “recovery of knock-down flies” value in series [1] (setting [4]) is recorded as “Recovery of the knock-down flies was observed”. Also, the “recovery of knock-down flies” value in series [1] (5000 and 20000 pmol/g doses) is “No recovery was observed”. Also, the “paralysis effect in combination with fermentation beer from AaIT1 expression K. lactis strain” value in series [1] (Av3+2 peptide at 500 pmol/g dose) is listed as “synergistic instead of additive paralysis effect”. Moreover, the “KD50 at 4-hours” value in series [1] (housefly injection) is reported as 490 pmol/g. Moreover, in series [1], the “toxicity to houseflies by injection” value is “toxic to houseflies” and the “lowest dose to produce knock-down activity” value is 100 pmol/g. Also, in the series with Aedes aegypti, the “Knock-down 50 at 3 hr, Average” value was determined as 281.5 ppm; the “Knock-down 50 at 3 hr” value was 230 ppm and 235.7 ppm and 347.7 ppm and 312.6 ppm; the “paralysis and kill of adult mosquitos upon topical application” value was “fast paralyze and eventually kill adult mosquitoes”; the “KD50 at 3-hours” value was 235.71 ppm and 312.57 ppm and 200-300 ppm and 229.9 ppm. In the series on Aedes aegypti (at 3-hours), the “KD50 relative to that observed for native Av3” value is recorded as “roughly 5 fold”. Besides, the synergy with permethrin result in the series on Aedes aegypti (peptide 200 ppm) is “some synergy”. Also, in the series on Aedes aegypti (topical application), the “recovery after maximum knock-down” value is “limited recovery thereafter; also recorded: recovery observed over time; also recorded: not much recovery effects observed thereafter”. Also, the “C-Val cleavage / stability” value in series [2] was “did not result in any apparent C-Val cleavage”.
Regarding “KPYWPWYK (Pharmacophore mutant) [Core-3]”, the “effect on housefly mortality” value in series [1] was “did not appear to have an effect on housefly mortality”.
For the substance “KACCPCYWAACPWAAACYAAACAAAK (Pharmacophore mutant) [Core 4]”, in series [1], the “activities in fly injection assay” value is given as “dramatically reduced activities”.
Turning to “KACCPCYWGGCPWGAACYPAGCAAAK (Pharmacophore mutant) [Core 5]”, in series [1] (setting [5]), the “KD50 at 3 hr” value was 1621 pmol/g. Further, the activity reduced result in series [1] (housefly injection) was “around 3 fold”.
Regarding KSCCPCYWGGCPWGQNCYPEGCSGPK [Av3b], in series [1] (Table 8, AAA Calibrate stock at 32.5 mg/mL), the “KD50 at 3 hr” value came to 172.22 pmol/g. In series [1] (Table 8, non-AAA stock at 50 mg/mL), the “KD50 at 3 hr” value is 265.21 pmol/g. Besides, in the series with Aedes aegypti (listed as Av3a-C1), the “activity relative to native Av3” value was “two-fold less active; also recorded: about twice as less active”; the “Knock-down 50 at 3 hr” value was 86.9 ppm and 86.1 ppm and 71.9 ppm. In addition, in the series on Aedes aegypti, the “Knock-down 50 at 3 hr, Average” value was 81.63 ppm and the “KD50 at 3-hours” value was 71.9 ppm.
Consider “RSCCPCYWGGCPWGQNCYPEGCSGPK (ends and bridges not checked; cysteine pairing not given here) [Av3-C1]”, for which the “recovery of the knock-down flies” value in series [1] (overnight observation) is given as “very rare”. Besides, the “KD50 at 4-hours” value in series [1] (housefly injection) stood at 521 pmol/g. The “lethal activity to houseflies” value in series [1] is recorded as “no potent lethal activity”.
Take “KSCCPCYWGGCPWGQNCYPEGCSGPK [Synthetic Av3b]”: the “KD50 at 3 hr” value came out at 633.02 pmol/g in series [1] (Table 8, synthetic peptide) and 540 pmol/g in series [1] (setting [5]). In series [1], the “activities in fly injection assay” value was “showed activities in fly injection assay”.
In the case of “GSRSCCPCYWGGCPWGQNCYPEGCSGPK (ends and bridges not checked; cysteine pairing not given here) [Av3+2−C1]”, in series [1] (setting [4]), the “recovery of knock-down flies” value is “Recovery of the knock-down flies was observed”. The “recovery of knock-down flies” value in series [1] (5000 and 20000 pmol/g doses) was “No recovery was observed”. The “KD50 at 4-hours” value in series [1] (housefly injection) turned out to be 651 pmol/g. The “lowest dose to produce knock-down activity” value in series [1] came to 500 pmol/g. In addition, in the series on Aedes aegypti, the “Knock-down 50 at 3 hr, Average” value came out at 747.9 ppm; the “Knock-down 50 at 3 hr” value was 952.7 ppm and 543.1 ppm; the “paralysis and kill of adult mosquitos upon topical application” value was “fast paralyze and eventually kill adult mosquitoes”; the “KD50 at 3-hours” value is 543.12 ppm and 500-900 ppm and 952.69 ppm. The “recovery after maximum knock-down” value with Aedes aegypti (topical application) is on record as “recovery was observed thereafter”. Also, the “knock-down and dead flies first observed post-feeding” value with houseflies (20 PPT mixed with fly food) turned out to be 24 h. Further, in the series on houseflies (20 PPT mixed with fly food, observed for 96 hours), the “oral toxicity to houseflies” value is listed as “toxic to houseflies when consumed and/or upon oral contact”. Besides, the recovery from paralysis result in the series on houseflies (continuous feeding, 20 PPT) is listed as “not observed”.
Consider “RSCCPCYWGGCPWGQNCYPEGCSGPKV [Av3, reference compound]”, for which, in series [1] (overnight observation), the “recovery of the knock-down flies” value was “very rare”. Further, the “KD50 at 4-hours” value in series [1] (housefly injection) is 606 pmol/g. Further, in series [1], the “toxicity to houseflies by injection” value is given as “toxic to houseflies” and the “lethal activity to houseflies” value is recorded as “no potent lethal activity”. In the series with Aedes aegypti, the “Knock-down 50 at 3 hr, Average” value is recorded as 45.98 ppm and the synergy with permethrin result is listed as “some synergy”. The “KD50 at 3-hours” value in the series on Aedes aegypti (listed as Native Av3) was 58 ppm and 42.6 ppm. Also, in the series with Aedes aegypti (topical application), the “recovery after maximum knock-down” value is listed as “no obvious recovery observed thereafter” and the “time at which knock-down effect reached its maximum” value is 1 h. For the same substance, the “selectivity for crustacean and insect sodium channels” value in series [3] was “high selectivity”.
Take KSCCPCYWGGCPWGQNCYPEGCSGPKV [Av3a]: in the series with Aedes aegypti, the “activity relative to native Av3” value was “the same as native Av3”; the “Knock-down 50 at 3 hr, Average” value is listed as 109.05 ppm; the “KD50 at 3-hours” value worked out at 38.8 ppm.
With “KPYWPWYKV (Pharmacophore mutant) [Core-2]”, the “effect on housefly mortality” value in series [1] was “did not appear to have an effect on housefly mortality”.
On the same count and under the same terms, then PYWPWY (Pharmacophore mutant) [Core-1], with “did not appear to have an effect on housefly mortality”.
